Laboratory results reported in patent publication EP2502917A1, “Solid state crystalline forms of 4-(2-ethyl-5-fluoro-2,3-dihydro-1H-inden-2-yl)-1H-imidazole” (Santhera Pharmaceuticals (Schweiz) AG, priority 2011, dated 2012).

What was measured:
[1] = Thermodynamic stability of polymorphs (differential scanning calorimetry); assay type: physicochemical; settings: enantiotropic pair: form A is the low temperature form, form D the high temperature form
Protocol: Both forms can be converted into each other, accordingly, forms A and D represent an enantiotropic pair of polymorphs whereby form A is the low temperature form and form D the high temperature form. Differential Scanning Calorimetry (DSC): DSC measurements were carried out on a Perkin Elmer DSC-7. The samples were placed into gold crucibles that were sealed under nitrogen. The measurements were performed with a heating rate of 10 or 20 °C min^-1 over the temperature range from -50 °C to about 200°C.

[2] = Aqueous solubility by UV/Vis spectroscopy (extinction at 270 nm) of the filtered suspension; assay type: physicochemical; settings: remaining solid is form A, aliquot diluted by a factor of 500, extinction at 270 nm
Protocol: A suspension of 118 mg fipamezole hydrochloride form B in 1 mL H2O is stirred at room temperature for two days. […] An aliquot of the solution is diluted with water by a factor of 500 and analyzed by UVNis spectroscopy.
A suspension of 97 mg fipamezole hydrochloride form B* in 0.5 mL H2O is stirred at room temperature for two days. […] An aliquot of the solution is diluted with water by a factor of 500 and analyzed by UVNis spectroscopy.
A suspension of 110 mg fipamezole hydrochloride form D in 0.5 mL H2O is stirred at room temperature for two days. […] An aliquot of the solution is diluted with water by a factor of 500 and analyzed by UVNis spectroscopy.

- thermodynamic stability [1]: high thermodynamic stability
- aqueous solubility ([2]; suspension of form B* in H2O stirred at room temperature for two days): about 43 g/L
- aqueous solubility ([2]; suspension of form D in H2O stirred at room temperature for two days): about 46 g/L
- solubility at 2 days ([2]; water, thermodynamic from solid, suspension of form B in H2O stirred at room temperature for two days): ~46 mg/mL
Structure (SMILES): CCC1(c2c[nH]cn2)Cc2ccc(F)cc2C1.Cl (stereo not shown) [form A, 4-(2-Ethyl-5-fluoro-2,3-dihydro-1H-inden-2-yl)-1H-imidazole hydrochloride]
